From PubChem BioAssay AID1963839 (Molecular Pharmacology Branch, DTP, NCI, 2024)
“And” between values parts separate entries of the source, which are not always exact repeats. Equal values may be shown once.

System: 817829-284-R-J1-PDC complex spheroid viability
Test: Anticancer human tumor 817829-284-R-J1-PDC patient-derived colon adenocarcinoma cell line growth inhibition [POLQ]
Conditions: for viability, T/C: stronger effect = lower value
Description: Multicellular complex tumor spheroid response to Polymerase (POL) inhibitors (novobiocin, ART-558, RP6685) in combination with a variety of drugs and investigational agents in selected tumor cell lines
The POL inhibitors (novobiocin, ART-558, and RP6685) were evaluated both individually and in combination with standard of care and investigational anticancer small molecules within a complex spheroid model of solid tumors. . Complex spheroids include a stromal component modeled by human endothelial cells (HUVEC) and fibroblasts modeled by human mesenchymal stem cells (MSCs). The concentration ranges selected for each drug and investigational agent were based upon clinically achievable concentrations if the clinical Cmax of the agent was known.
Compounds. The drugs and investigational agents: novobiocin (NSC847541), ART-558 (NSC835418), RP-6685 (NSC848927), peposertib (NSC802822), ceralasertib (NSC780249), elimusertib (NSC800525), camonsertib (NSC841442), AZD-1390 (NSC803789), olaparib (NSC753686), talazoparib (NSC767125), rucaparib (NSC756644), sotorasib (NSC818433), MRTX-1133 (NSC836407), SN-38 (NSC673596), topotecan (NSC609699), epotoside (NSC141540), doxorubicin (NSC123127), gemcitabine (NSC613327), 5-fluorouracil (NSC19893), paclitaxel (NSC125973), vemurafenib (NSC761431), MSA-2 (NSC828583), SN-011 (NSC837082), adavosertib (NSC754352), prexasertib (NSC758257), carboplatin (NSC241240) and oxaliplatin (NSC266046), were obtained from the National Cancer Institute (NCI) Developmental Therapeutics Program Chemical Repository (21). The FDA-approved anticancer drug set is available from the Developmental Therapeutics Program at https://dtp.cancer.gov/organization/dscb/obtaining/. […] The stock solutions were prepared in dimethyl sulfoxide (DMSO, Sigma-Aldrich, St. Louis, MO, cat. D2650), except for the platinum compounds which were prepared in saline (Quality Biological, Gaithersburg, MD, cat. 114-055-101), at 800-fold the tested concentration and stored at -70 degrees C prior to their use. All drugs and investigational agents were tested over a range starting from a high concentration at or near the clinical Cmax and decreasing in half-log increments. If the clinical Cmax for an agent had not been determined, the highest concentration tested was 10 microM, except for SN-38, which was tested at a high concentration of 1 microM.
Cell Culture. All cells were maintained in an incubator at 37 degrees C and 5% CO2 with 95% humidity. The PDC lines were cultured according to standard operating procedures established by the NCI PDMR (https://pdmr.cancer.gov). Table 3 of the manuscript, lists the cell lines along with the number of the three cell types plated to form the mct-spheroids and media for tumor cell growth. After thawing, all PDC lines, except 997537-175-T-J1-PDC and 415267-285-R-J2-PDC, were cultured in Matrigel-coated flasks prepared with a working solution of 1X Ham's F-12 nutrient mix, without supplementation (Thermo Fisher Scientific, cat. 11765054), 100 U/mL penicillin-streptomycin (Thermo Fisher Scientific, cat. 15140122), and 2.5% Matrigel (Corning Inc., Corning, NY, cat. 354248) for the first three passages. The two PDC lines 997537-175-T-J1-PDC and 415267-285-R-J2-PDC were cultured on uncoated flasks. The 857933-349-R-J2-PDC line was cultured in 6C/Colon 1B media containing advanced DMEM/F-12 (Thermo Fisher Scientific, cat. 12634028), 10 mM HEPES (Thermo Fisher Scientific, cat. 15630080), 1X GlutaMAX supplement (Thermo Fisher Scientific, cat. 35050061), 0.1 mg/mL primocin (InvivoGen, San Diego, CA, cat. ant-pm-2), 10% defined fetal bovine serum, heat inactivated (HyClone Laboratories Inc., Logan, UT, cat. SH30070.03HI), 50% L-WRN conditioned media (ATCC, cat. CRL-3276), 1.25 mM N-Acetyl-L-cysteine (Sigma-Aldrich, cat. A9165), 10 mM nicotinamide (Sigma-Aldrich, cat. N0636), 1X B-27 supplement (Thermo Fisher Scientific, cat. 17504044), 1X N-2 supplement (Thermo Fisher Scientific, cat. […]
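Further: spheroids exposed to compounds for 7 days.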
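Wherever viability, T/C is given: 100% = DMSO vehicle-treated spheroids.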

## COc1cccc(OCCCN)c1-c1cc(Nc2cnc(C#N)cn2)n[nH]1
Compound 0.00316 µM
  viability, T/C: 33.5% and 96.3% and 91.2%
Compound 0.01 µM
  viability, T/C: 8.6% and 15.6% and 14.9%
Compound 0.0316 µM
  viability, T/C: 6.55% and 5.13% and 5.86%
Compound 0.1 µM
  viability, T/C: 4.87% and 4.67% and 4.64%
Compound 0.316 µM
  viability, T/C: 4.09% and 5.43% and 4.13%
Compound 1 µM
  viability, T/C: 3.68% (2×) and 3.24%
Curve of compound
  IC50: < 3.16 nM and 6.13 nM and 5.89 nM

## CNCc1ccc(-c2[nH]c3cc(F)cc4c3c2CCNC4=O)cc1
Compound 0.0316 µM
  viability, T/C: 86.8% and 88% and 73.1%
Compound 0.1 µM
  viability, T/C: 81.9% and 77.7% and 81.3%
Compound 0.316 µM
  viability, T/C: 63.4% and 89.9% and 53.7%
Compound 1 µM
  viability, T/C: 68.6% and 81.8% and 58.3%
Compound 3.16 µM
  viability, T/C: 51.3% and 64.6% and 58.9%
Compound 10 µM
  viability, T/C: 47.6% (2×) and 40.2%
Curve of compound
  IC50: 6530 nM and 6300 nM and 9450 nM

## COc1cc(C2c3cc4c(cc3C(OC3OC5COC(C)OC5C(O)C3O)C3COC(=O)C23)OCO4)cc(OC)c1O (stereo not drawn) + COC1C(OC(N)=O)C(O)C(Oc2ccc3c(O)c(NC(=O)c4ccc(O)c(CC=C(C)C)c4)c(=O)oc3c2C)OC1(C)C
Curve of first compound, second compound 0.0316 µM
  IC50: < 31.6 nM
Curve of first compound, second compound 0.1 µM
  IC50: 62.2 nM
Curve of first compound, second compound 0.316 µM
  IC50: 38.7 nM
Curve of first compound, second compound 1 µM
  IC50: 77.8 nM
Curve of first compound, second compound 3.16 µM
  IC50: 74.9 nM
Curve of first compound, second compound 10 µM
  IC50: 61.4 nM
Second compound 0.0316 µM, first compound 0.0316 µM
  viability, T/C: 47.9%
Second compound 0.0316 µM, first compound 0.1 µM
  viability, T/C: 31.3%
Second compound 0.0316 µM, first compound 0.316 µM
  viability, T/C: 16.2%
Second compound 0.0316 µM, first compound 1 µM
  viability, T/C: 14.4%
Second compound 0.0316 µM, first compound 3.16 µM
  viability, T/C: 11.2%
Second compound 0.0316 µM, first compound 10 µM
  viability, T/C: 5.8%
Second compound 0.1 µM, first compound 0.0316 µM
  viability, T/C: 74.1%
Second compound 0.1 µM, first compound 0.1 µM
  viability, T/C: 31.2%
Second compound 0.1 µM, first compound 0.316 µM
  viability, T/C: 19.5%
Second compound 0.1 µM, first compound 1 µM
  viability, T/C: 19.1%
Second compound 0.1 µM, first compound 3.16 µM
  viability, T/C: 11.8%
Second compound 0.1 µM, first compound 10 µM
  viability, T/C: 6.51%
Second compound 0.316 µM, first compound 0.0316 µM
  viability, T/C: 53.6%
Second compound 0.316 µM, first compound 0.1 µM
  viability, T/C: 34.5%
Second compound 0.316 µM, first compound 0.316 µM
  viability, T/C: 15.2%
Second compound 0.316 µM, first compound 1 µM
  viability, T/C: 15.6%
Second compound 0.316 µM, first compound 3.16 µM
  viability, T/C: 12.6%
Second compound 0.316 µM, first compound 10 µM
  viability, T/C: 6.15%
Second compound 1 µM, first compound 0.0316 µM
  viability, T/C: 79.2%
Second compound 1 µM, first compound 0.1 µM
  viability, T/C: 42.2%
Second compound 1 µM, first compound 0.316 µM
  viability, T/C: 15.8%
Second compound 1 µM, first compound 1 µM
  viability, T/C: 16.3%
Second compound 1 µM, first compound 3.16 µM
  viability, T/C: 11.7%
Second compound 1 µM, first compound 10 µM
  viability, T/C: 6.63%
Second compound 3.16 µM, first compound 0.0316 µM
  viability, T/C: 83.7%
Second compound 3.16 µM, first compound 0.1 µM
  viability, T/C: 38.8%
Second compound 3.16 µM, first compound 0.316 µM
  viability, T/C: 18.1%
Second compound 3.16 µM, first compound 1 µM
  viability, T/C: 19.1%
Second compound 3.16 µM, first compound 3.16 µM
  viability, T/C: 13.6%
Second compound 3.16 µM, first compound 10 µM
  viability, T/C: 6.38%
Second compound 10 µM, first compound 0.0316 µM
  viability, T/C: 68.8%
Second compound 10 µM, first compound 0.1 µM
  viability, T/C: 36.6%
Second compound 10 µM, first compound 0.316 µM
  viability, T/C: 17.9%
Second compound 10 µM, first compound 1 µM
  viability, T/C: 20.1%
Second compound 10 µM, first compound 3.16 µM
  viability, T/C: 11.6%
Second compound 10 µM, first compound 10 µM
  viability, T/C: 6.29%

## COc1cc(C2c3cc4c(cc3C(OC3OC5COC(C)OC5C(O)C3O)C3COC(=O)C23)OCO4)cc(OC)c1O (stereo not drawn)
Compound 0.0316 µM
  viability, T/C: 60.4% and 73.7% and 73.4%
Compound 0.1 µM
  viability, T/C: 32.3% and 48.6% and 33.4%
Compound 0.316 µM
  viability, T/C: 15.3% and 18.4% and 14.9%
Compound 1 µM
  viability, T/C: 19.1% and 18.8% and 20.4%
Compound 3.16 µM
  viability, T/C: 16.7% and 11.9% and 11.2%
Compound 10 µM
  viability, T/C: 6.7% and 6.64% and 6.97%
Curve of compound
  IC50: 47.7 nM and 91.2 nM and 61.7 nM
